Experimental data taken from patent publication US7820804B2, “Fluoroglycoside derivatives of pyrazoles, medicaments containing these compounds, and the use thereof” (Sanofi-Aventia Deutschland GmbH, priority 2004, dated 2010).

molecular target: T1, human sodium-dependent glucose transporter 1 (SGLT1, SLC5A1) (Homo sapiens, UniProt P13866); test: Inhibition of methyl α-D-glucopyranoside (α-MDG) uptake in CHO-TRex-hSGLT1 cells; type: cell-based; conditions: in vitro uptake of methyl α-D-glucopyranoside, 50 μM α-MDG, 30 min at room temperature
T1 construct: Bases 11 to 2005 correspond to the complete coding region of human SGLT1; expressed in transfected cells
T1 sequence (P13866 1-664): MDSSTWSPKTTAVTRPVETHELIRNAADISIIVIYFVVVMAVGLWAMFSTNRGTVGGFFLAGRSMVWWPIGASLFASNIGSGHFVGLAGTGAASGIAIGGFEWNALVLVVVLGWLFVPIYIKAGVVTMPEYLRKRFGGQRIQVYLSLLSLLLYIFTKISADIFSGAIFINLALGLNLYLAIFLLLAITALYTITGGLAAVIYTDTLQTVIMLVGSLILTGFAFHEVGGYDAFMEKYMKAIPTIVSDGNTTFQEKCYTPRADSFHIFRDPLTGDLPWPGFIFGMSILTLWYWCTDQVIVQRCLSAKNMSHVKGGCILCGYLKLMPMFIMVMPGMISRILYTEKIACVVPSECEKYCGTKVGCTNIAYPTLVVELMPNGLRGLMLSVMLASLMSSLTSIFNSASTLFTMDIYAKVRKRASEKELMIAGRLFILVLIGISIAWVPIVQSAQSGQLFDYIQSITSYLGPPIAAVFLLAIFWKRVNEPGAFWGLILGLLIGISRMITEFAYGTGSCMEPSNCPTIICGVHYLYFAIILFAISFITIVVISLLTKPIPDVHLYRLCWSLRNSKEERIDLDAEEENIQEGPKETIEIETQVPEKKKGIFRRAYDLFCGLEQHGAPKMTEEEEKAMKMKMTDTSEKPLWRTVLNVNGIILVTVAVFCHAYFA
Excerpt: A further method for testing the activity of the compounds is the inhibition of the transport activity of the human sodium-dependent glucose transporter 1 (SGLT1, SLC5A1) in vitro:
1. Cloning of an Expression Vector for Human SGLT1
The cDNA for human SGLT1 was introduced into the pcDNA4/TO vector (Invitrogen) by standard methods of molecular biology as described in Sambrook et al. (Sambrook et al., Molecular Cloning, A Laboratory Manual, 2nd Edition). […] Bases 11 to 2005 correspond to the complete coding region of human SGLT1.
2. Preparation of a Recombinant Cell Line with Inducible Expression of Human SGLT1
The expression vector for human SGLT1 was introduced into CHO-TRex cells (Invitrogen) by means of FuGene6 lipofection (Roche). To select single cell clones, 600 μg/mI Zeocin (Invitrogen) was added to the cell culture medium (Nutrient Mixture F-12 (Ham), (Invitrogen) supplemented with 10% fetal calf serum (BD Biosciences), 10 μg/ml blasticidin S (CN Biosciences), 100 units/ml penicillin, 100 units/ml streptomycin). The functionality of the single cell clones resulting from the selection was tested via their uptake activity for radiolabeled methyl α-D-glucopyranoside. The cell clone with the greatest uptake activity for methyl α-D-glucopyranoside, referred to as CHO-TRex-hSGLT1 hereinafter, was selected for further experiment, and cultivation was continued in the presence of 600 μg/ml of zeocin.
3. Measurement of the Inhibitory Effect of Test Substances on the Uptake of Methyl […]-D-glucopyranoside ([…]-MDG)
CHO-TRex-hSGLT1 cells were seeded in a concentration of 50 000 cells per well in Cytostar-T scintillating 96-well plates (Amersham Biosciences) in cell culture medium and cultivated for 24 h. Expression of the recombinant human SGLT1 was induced by adding 1 pg/mI tetracyclin for a further 24 h. For α-MDG uptake experiments, the cells were washed with PBS and then starved (PBS supplemented with 10% fetal calf serum) at 37° C. for one hour. After a further washing step with transport assay buffer (140 mM sodium chloride, 2 mM potassium chloride, 1 mM magnesium chloride, 1 mM calcium chloride, 10 mM HEPES/Tris, pH 7.5), the cells were incubated either in the absence or presence of test substances varying in concentration at room temperature for 15 min. The test substances were diluted appropriately in transport assay buffer (40 μl/well) starting from a 10 mM stock solution in dimethyl sulfoxide.
The assay was then started by adding 10 μl of a mixture of radiolabeled methyl α-D-[U-^14C]glucopyranoside (Amersham) and unlabeled methyl α-D-glucopyranoside (Acros). The final concentration of methyl α-D-glucopyranoside in the assay was 50 μM. After an incubation time of 30 min at room temperature, the reaction was stopped by adding 50 µl/well of 10 mM methyl α-D-glucopyranoside in transport assay buffer (4° C.), and the radioactivity uptake by the cells was determined in a MicroBeta Scintillation Microplate Reader (Wallac). The half-maximum inhibitory effect of the test substances (IC50) was determined in the following way: • 1. Establishment of the value for 0% inhibition. This is the measurement in the absence of substance, measured in sodium-containing transport assay buffer. • 2. Establishment of the value for 100% inhibition. This is the measurement in the absence of substance, measured in sodium-free transport assay buffer (140 mM choline chloride, 2 mM potassium chloride, 1 mM magnesium chloride, 1 mM calcium chloride, 10mM HEPES/Tris, pH7.5). • 3. Calculation of the percentage inhibitions for the measurements carried out in the presence of various concentrations of test substance. It was then possible to ascertain therefrom the concentration of test substance which reduced the uptake of methyl α-D-glucopyranoside by 50% (IC50).
IC50 values of test substances (μM) [in vitro testing of the uptake of methyl α-D-glucopyranoside]

SMILES | IC50
CC(C)c1[nH]nc(OC2OC(CO)C(F)C(O)C2O)c1Cc1ccc(CCCC(=O)N2CCCC2)cc1 (stereo not drawn) [Example 15] | 170 nM
CC(C)c1[nH]nc(OC2OC(CO)C(F)C(O)C2O)c1Cc1ccc(CCC(=O)NC(C)(C)CO)cc1 (stereo not drawn) [Example 18] | 80 nM
CC(C)c1[nH]nc(OC2OC(CO)C(F)C(O)C2O)c1Cc1ccc(CCCC(=O)NCCCN)cc1 (stereo not drawn) [Example 22] | 144 nM
Cc1[nH]nc(OC2OC(CO)C(F)C(O)C2O)c1Cc1ccc(CCCC(=O)NCCC(N)=O)cc1 (stereo not drawn) [Example 6] | 133 nM
CC(C)c1[nH]nc(OC2OC(CO)C(F)C(O)C2O)c1Cc1ccc(CCCC(=O)N[C@@H]2O[C@H](CO)[C@@H](O)[C@H](O)[C@H]2O)cc1 (stereo partly drawn) [Example 24] | 208 nM
CC(C)c1[nH]nc(OC2OC(CO)C(F)C(O)C2O)c1Cc1ccc(CCCC(=O)N2CCN(C)CC2)cc1 (stereo not drawn) [Example 12] | 139 nM
CCCNC(=O)NCCCc1ccc(Cc2c(OC3OC(CO)C(F)C(O)C3O)n[nH]c2C)cc1 (stereo not drawn) [Example 31] | 252 nM

Further lines, results first:

IC50 | SMILES
47 nM | CC(C)c1[nH]nc(OC2OC(CO)C(F)C(O)C2O)c1Cc1ccc(CCCC(=O)NC(CO)(CO)CO)cc1 (stereo not drawn) [Example 21]
43 nM | CC(C)c1[nH]nc(OC2OC(CO)C(F)C(O)C2O)c1Cc1ccc(/C=C/CC(=O)NCCC(N)=O)cc1 (stereo not drawn) [Example 3]
81 nM | CC(C)c1[nH]nc(OC2OC(CO)C(F)C(O)C2O)c1Cc1ccc(CCCC(=O)N[C@@H](CO)C(N)=O)cc1 (stereo partly drawn) [Example 9]
43 nM | CC(C)c1[nH]nc(OC2OC(CO)C(F)C(O)C2O)c1Cc1ccc(CCCNC(=O)N2CCN(C)CC2)cc1 (stereo not drawn) [Example 36]
70 nM | CC(C)c1[nH]nc(O[C@@H]2O[C@H](CO)[C@@H](F)[C@H](O)[C@H]2O)c1Cc1ccc(C(=O)NCC(N)=O)cc1 [Example 33]
